# From ChEMBL document CHEMBL5518215, “Unlocking Antibacterial Potential: Key-Site-Based Regulation of Antibacterial Spectrum of Peptides” (J Med Chem, 2024)
# Activity calls are given as the source filed them. The rule behind the calls is not given here.
# Assays:
# Salmonella typhimurium [1] = assay: Antimicrobial activity against Salmonella typhimurium 14028 assessed as absence bacterial growth measured after 18 to 24 hrs incubation by NCCLS method; assay type: functional, Salmonella enterica subsp. enterica serovar Typhimurium; details: Salmonella enterica, time 18-24 hrs
# Staphylococcus aureus [2] = assay: Induction of morphological changes in Staphylococcus aureus 29213 assessed as changes in cell surface by measuring signs of disruption by using scanning electron microscopy; assay type: functional, organism-based
# [3] = system: Staphylococcus epidermidis; assay: Antimicrobial activity against Staphylococcus epidermidis 12228 assessed as absence bacterial growth measured after 18 to 24 hrs incubation by NCCLS method; assay type: functional; details: time 18-24 hrs
# Staphylococcus aureus [4] = assay: Induction of morphological changes in Staphylococcus aureus 29213 assessed as cavity between cell wall and cytoplasmic membrane by using transmission electron microscopy; assay type: functional, organism-based
# Staphylococcus aureus [5] = assay: Antimicrobial activity against Staphylococcus aureus 29213 assessed as bacterial killing measured after 16 hrs incubation; assay type: functional
# Escherichia coli [6] = assay: Antibacterial activity against Escherichia coli 25922 assessed as absence bacterial growth measured after 8 hrs treated with H2O2; assay type: functional
# Escherichia coli [7] = assay: Antibacterial activity against Escherichia coli 25922 assessed as absence bacterial growth measured after 12 hrs treated with H2O2; assay type: functional
# [8] = Cytotoxicity against porcine IPEC-J2 cells assessed as cell survival rate at 64 uM measured after 8 hrs by MTT assay relative to control; assay type: toxicity, cell-based, Sus scrofa; details: pig, read-out: Activity
# Escherichia coli [9] = assay: Antibacterial activity against Escherichia coli 25922 assessed as absence bacterial growth measured after 18 to 24 hrs incubation at pH 8 by NCCLS method; assay type: functional; details: time 18-24 hrs
# Enterococcus faecalis = assay: Antimicrobial activity against Enterococcus faecalis 29212 assessed as bacterial killing measured after 16 hrs incubation; assay type: functional
# Staphylococcus aureus [10] = assay: Inhibition of respiratory chain dehydrogenase activity in mid-log phase Staphylococcus aureus 29213 measured after 4 hrs by Red-tetraazoline based spectrophotometry assay
# Staphylococcus aureus [11] = assay: Antimicrobial activity against Methicillin-resistant Staphylococcus aureus 43300 assessed as absence bacterial growth measured after 18 to 24 hrs incubation by NCCLS method; assay type: functional; details: time 18-24 hrs
# Cell membrane [12] = assay: Induction of cytoplasmic membrane disruption in Escherichia coli 25922 assessed as increase in fluorescence intensity measured upto 30 mins by DiSC3-5 probe based assay; assay type: cell membranes; details: dose 2-64 µM
# Erythrocyte = assay: Hemolytic activity in human RBC at effective concentration measured after 1 hr by microplate reader analysis; assay type: toxicity, cell-based
# Acinetobacter baumannii = assay: Antimicrobial activity against Acinetobacter baumannii 1.6769 assessed as bacterial killing measured after 16 hrs incubation; assay type: functional
# Escherichia coli [13] = assay: Antimicrobial activity against Escherichia coli 25922 assessed as absence bacterial growth measured after 18 to 24 hrs incubation in presence of 25% serum by NCCLS method; assay type: functional; details: time 18-24 hrs
# Escherichia coli [14] = assay: Antimicrobial activity against Escherichia coli 25922 assessed as bacterial killing measured after 16 hrs incubation; assay type: functional
# Escherichia coli [15] = assay: Induction of morphological changes in Escherichia coli 25922 assessed as membrane damage and cytoplasmic leakage by using transmission electron microscopy; assay type: functional, organism-based
# Salmonella typhimurium [16] = assay: Antimicrobial activity against Salmonella typhimurium 14028 assessed as bacterial killing measured after 16 hrs incubation; assay type: functional, Salmonella enterica subsp. enterica serovar Typhimurium; details: Salmonella enterica
# Escherichia coli [17] = assay: Effect on inner membrane fluidity in Escherichia coli 25922 assessed as reduction in intracellular membrane fluidity by measuring fluorescence intensity of Laurdan-GP after 60 mins by spectrophotometry; assay type: functional, organism-based
# Cell membrane [18] = assay: Induction of cytoplasmic membrane disruption in Staphylococcus aureus 29213 assessed as increase in fluorescence intensity at 2 to 64 uM by DiSC3-5 probe based assay; assay type: cell membranes; details: dose 2-64 µM, time <= 30.0 min, TDE = time-dependent effect
# Escherichia coli [19] = assay: Antimicrobial activity against Escherichia coli 25922 assessed as absence bacterial growth measured after 18 to 24 hrs incubation in presence of KCl by NCCLS method; assay type: functional; details: time 18-24 hrs
# Listeria monocytogenes [20] = assay: Antimicrobial activity against Listeria monocytogenes 1.10753 assessed as absence bacterial growth measured after 18 to 24 hrs incubation by NCCLS method; assay type: functional; details: time 18-24 hrs
# Pseudomonas aeruginosa = assay: Antimicrobial activity against Pseudomonas aeruginosa 27853 assessed as bacterial killing measured after 16 hrs incubation; assay type: functional
# Escherichia coli [21] = assay: Induction of ROS production in mid-log phase Escherichia coli 25922 assessed as fluorescence intensity at 1 to 64 uM by DCFH-DA assay; assay type: functional, organism-based; details: dose 1-64 µM
# Staphylococcus aureus [22] = assay: Effect on inner membrane fluidity in Staphylococcus aureus 29213 assessed as reduction in intracellular membrane fluidity by measuring fluorescence intensity of Laurdan-GP after 60 mins by spectrophotometry; assay type: functional, organism-based
# Escherichia coli [23] = assay: Induction of morphological changes in Escherichia coli 25922 assessed as changes in cell surface by measuring signs of disruption by using scanning electron microscopy; assay type: functional, organism-based
# Escherichia coli [24] = assay: Antimicrobial activity against Escherichia coli 25922 assessed as absence bacterial growth measured after 18 to 24 hrs incubation in presence of NaCl by NCCLS method; assay type: functional; details: time 18-24 hrs
# Escherichia coli [25] = assay: Antimicrobial activity against Escherichia coli 25922 assessed as absence bacterial growth measured after 18 to 24 hrs incubation in presence of NH4Cl by NCCLS method; assay type: functional; details: time 18-24 hrs
# Escherichia coli [26] = assay: Antimicrobial activity against Escherichia coli 25922 assessed as absence bacterial growth measured after 18 to 24 hrs incubation in presence of ZnCl2 by NCCLS method; assay type: functional; details: time 18-24 hrs
# Listeria monocytogenes [27] = assay: Antimicrobial activity against Listeria monocytogenes 1.10753 assessed as bacterial killing measured after 16 hrs incubation; assay type: functional
# Escherichia coli [28] = assay: Antibacterial activity against Escherichia coli 25922 assessed as absence bacterial growth measured after 18 to 24 hrs incubation at pH 4 by NCCLS method; assay type: functional; details: time 18-24 hrs
# Cell membrane [29] = assay: Induction of cytoplasmic membrane disruption in Escherichia coli 25922 assessed as increase in fluorescence intensity at 2 to 64 uM by DiSC3-5 probe based assay; assay type: cell membranes; details: dose 2-64 µM, time <= 30.0 min, TDE = time-dependent effect
# [30] = system: Staphylococcus epidermidis; assay: Antimicrobial activity against Staphylococcus epidermidis 12228 assessed as bacterial killing measured after 16 hrs incubation; assay type: functional
# [31] = Cytotoxicity against human HEK-293T cells assessed as cell survival rate at 64 uM measured after 8 hrs by MTT assay relative to control; assay type: toxicity, cell-based; details: read-out: Activity
# Salmonella typhimurium [32] = assay: Antimicrobial activity against Salmonella typhimurium C7731 assessed as absence bacterial growth measured after 18 to 24 hrs incubation by NCCLS method; assay type: functional, Salmonella enterica subsp. enterica serovar Typhimurium; details: Salmonella enterica, time 18-24 hrs
# Escherichia coli [33] = assay: Antimicrobial activity against Escherichia coli K88 assessed as bacterial killing measured after 16 hrs incubation; assay type: functional
# Cell membrane [34] = assay: Induction of membrane disruption in Staphylococcus aureus 29213 assessed as increase in extracellular ATP level at 4 to 32 uM measured after 1 hr; assay type: cell membranes; details: dose 4-32 µM
# Lipoteichoic acid = assay: Binding affinity to Staphylococcus aureus LTA assessed as fluorescence intensity measured after 1 hr by spectrophotometry; details: dose 1-64 µM
# DNA = assay: Binding affinity to DNA in Escherichia coli 25922 incubated for 1 hr by electrophoresis; assay type: nucleic-acid assay
# [35] = Cytotoxicity against human HEK-293T cells assessed as cell survival rate measured after 8 hrs by MTT assay; assay type: toxicity, cell-based
# Escherichia coli [36] = assay: Antibacterial activity against Escherichia coli 25922 assessed as absence bacterial growth measured after 18 to 24 hrs incubation at pH 10 by NCCLS method; assay type: functional; details: time 18-24 hrs
# Escherichia coli [37] = assay: Antimicrobial activity against Escherichia coli 25922 assessed as absence bacterial growth measured after 18 to 24 hrs incubation by NCCLS method; assay type: functional; details: time 18-24 hrs
substance,measurement,setting,value
H-GKLWLKAGKLWLKGGKLWLKG-NH2,MIC,Salmonella typhimurium [1],2 µM
same,Activity,Staphylococcus aureus [2],Active
same,MIC,[3],4 µM
same,Activity,Staphylococcus aureus [4],Active
same,MBC,Staphylococcus aureus [5],8 µM
same,MIC,Escherichia coli [6],2 µM
same,MIC,Escherichia coli [7],4 µM
same,"viability at 8 h, 64 µM",[8],> 80%
same,MIC,Escherichia coli [9],2 µM
same,MBC,Enterococcus faecalis,8 µM
same,inhibition,Staphylococcus aureus [10],Active
same,MIC,Staphylococcus aureus [11],4 µM
same,Activity,Cell membrane [12],Dose-Dependent Effect
same,HC10,Erythrocyte,> 128 µM
same,MBC,Acinetobacter baumannii,2 µM
same,MIC,Escherichia coli [13],32 µM
same,MBC,Escherichia coli [14],2 µM
same,Activity,Escherichia coli [15],Active
same,MBC,Salmonella typhimurium [16],16 µM
same,Activity,Escherichia coli [17],Active
same,Activity,Cell membrane [18],Tde
same,MIC,Escherichia coli [19],2 µM
same,MIC,Listeria monocytogenes [20],> 32 µM
same,MBC,Pseudomonas aeruginosa,8 µM
same,Activity,Escherichia coli [21],Active
same,Activity,Staphylococcus aureus [22],Active
same,Activity,Escherichia coli [23],Active
same,MIC,Escherichia coli [24],16 µM
same,MIC,Escherichia coli [25],2 µM
same,MIC,Escherichia coli [26],2 µM
same,MBC,Listeria monocytogenes [27],> 32 µM
same,MIC,Escherichia coli [28],> 64 µM
same,Activity,Cell membrane [29],Tde
same,MBC,[30],8 µM
same,"viability at 8 h, 64 µM",[31],> 80%
same,MIC,Salmonella typhimurium [32],8 µM
same,MBC,Escherichia coli [33],0.5 µM
same,Activity,Cell membrane [34],Active
same,Activity,Lipoteichoic acid,Dose-Dependent Effect
same,Activity,DNA,Active
same,IC50 at 8 h,[35],> 64 µM
same,MIC,Escherichia coli [36],2 µM
same,MIC,Escherichia coli [37],2 µM
